From ChEMBL document CHEMBL1201862, “PubChem BioAssay data set” (2004)
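Protocol summary: plate cells (96-well), add compound at 5 concentrations, incubate 48 h, interpolate endpoints linearly. Abbreviation: GI50, concentration required for 50% inhibition of growth.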 Calls of active or inactive are those of the source. Rule as the data show it: active = GI50 up to about 1.1 µM and inactive = higher.

Key:
Experiment in all cases: inhibition of tumour cell growth, NCI panel, 48 h
NCI-H522 = tested on: NCI-H522
RXF 393 = tested on: RXF 393
SF-295 = tested on: SF-295
OVCAR-4 = tested on: OVCAR-4
HL-60 = tested on: HL-60
ACHN = tested on: ACHN
HCC 2998 = tested on: HCC 2998
MOLT-4 = tested on: MOLT-4
EKVX = tested on: EKVX
COLO 205 = tested on: COLO 205
M14 = tested on: M14
Malme-3M = tested on: Malme-3M
RPMI-8226 = tested on: RPMI-8226
OVCAR-5 = tested on: OVCAR-5
UO-31 = tested on: UO-31
U-251 = tested on: U-251
NCI-H226 = tested on: NCI-H226
SR = tested on: SR
SK-MEL-2 = tested on: SK-MEL-2

Measured: GI50

CCOC(=O)C(C(=O)OCC)C(NC(=O)Nc1cc(C(F)(F)F)ccc1OC)(C(F)(F)F)C(F)(F)F
inactive: NCI-H522 22.3 µM | RXF 393 30.3 µM | SF-295 23.2 µM | OVCAR-4 23.2 µM | HL-60 21.8 µM | ACHN 29.1 µM | HCC 2998 25.6 µM | MOLT-4 24 µM | EKVX 70.3 µM | COLO 205 17.8 µM | M14 21.1 µM | Malme-3M 24.5 µM | RPMI-8226 18.8 µM | OVCAR-5 45.8 µM | UO-31 21 µM | U-251 29.2 µM | NCI-H226 25.5 µM

c1ccc(/N=C(\N2CCCC2)N(CCN2CCCC2)c2ccccc2)cc1
inactive: NCI-H522 11.3 µM | SF-295 6.32 µM | OVCAR-4 32.1 µM | HL-60 2.91 µM | ACHN 40 µM | SR 13.2 µM | MOLT-4 3.98 µM | EKVX 73.3 µM | SK-MEL-2 64.9 µM | COLO 205 7.33 µM | M14 8.34 µM | Malme-3M > 100 µM | RPMI-8226 47.8 µM | OVCAR-5 29.6 µM | UO-31 14.8 µM | U-251 29.9 µM | NCI-H226 23.7 µM

O=S(=O)(O)c1cc(Nc2ccnc3ccccc23)c2c(S(=O)(=O)O)cc(S(=O)(=O)O)cc2c1
inactive: NCI-H522 > 100 µM | RXF 393 > 100 µM | OVCAR-4 > 100 µM | HCC 2998 > 100 µM | MOLT-4 > 100 µM | EKVX > 100 µM | SK-MEL-2 > 100 µM | COLO 205 > 100 µM | M14 > 100 µM | Malme-3M > 100 µM | RPMI-8226 > 100 µM | OVCAR-5 > 100 µM | UO-31 > 100 µM | U-251 > 100 µM | NCI-H226 > 100 µM

O=C(c1ccc(Cl)cc1)c1ccc(OCCSCCCCCCCCCCSCCOc2ccc(C(=O)c3ccc(Cl)cc3)cc2)cc1
inactive: NCI-H522 > 100 µM | RXF 393 > 100 µM | SF-295 91.8 µM | HL-60 > 100 µM | ACHN > 100 µM | HCC 2998 > 100 µM | MOLT-4 > 100 µM | EKVX > 100 µM | SK-MEL-2 > 100 µM | COLO 205 > 100 µM | Malme-3M > 100 µM | RPMI-8226 > 100 µM | OVCAR-5 > 100 µM | UO-31 > 100 µM | U-251 > 100 µM | NCI-H226 > 100 µM

COC(=O)[C@H](Cc1ccccc1)NC(=O)c1ccc(CNC(=O)/C=C/c2ccc(-c3ccccc3)cc2)cc1
inactive: RXF 393 11.1 µM | SF-295 19.7 µM | OVCAR-4 > 100 µM | HL-60 25.9 µM | ACHN > 100 µM | HCC 2998 11.5 µM | MOLT-4 > 100 µM | EKVX > 100 µM | SK-MEL-2 > 100 µM | COLO 205 > 100 µM | M14 94.6 µM | Malme-3M 24.9 µM | RPMI-8226 > 100 µM | OVCAR-5 59.4 µM | UO-31 > 100 µM | U-251 5.97 µM | NCI-H226 > 100 µM

CC(C)CC(NP(=O)(O)OC1OC(C)C(O)C(O)C1O)C(=O)NC(Cc1c[nH]c2ccccc12)C(=O)O (stereo unspecified)
inactive: NCI-H522 > 100 µM | SF-295 > 100 µM | OVCAR-4 > 100 µM | HCC 2998 > 100 µM | MOLT-4 > 100 µM | EKVX > 100 µM | COLO 205 > 100 µM | M14 > 100 µM | Malme-3M > 100 µM | RPMI-8226 > 100 µM | OVCAR-5 > 100 µM | UO-31 > 100 µM | U-251 > 100 µM | NCI-H226 > 100 µM

O=c1c2ccccc2nc(N/N=C/c2ccccc2O)n1-c1ccccc1
inactive: NCI-H522 4.84 µM | RXF 393 17.1 µM | SF-295 6.4 µM | OVCAR-4 5.18 µM | HL-60 2.65 µM | ACHN 3.62 µM | HCC 2998 5.27 µM | SK-MEL-2 7.67 µM | COLO 205 3.99 µM | M14 4.52 µM | Malme-3M 12.2 µM | OVCAR-5 7.18 µM | UO-31 2.54 µM | U-251 5.2 µM | NCI-H226 5.41 µM

CC(C)c1c(O[Si](C(C)C)(C(C)C)C(C)C)cc2c(c1O)CC[C@H]1C(C)(C)CCC[C@]21C
inactive: NCI-H522 47.2 µM | RXF 393 > 100 µM | SF-295 > 100 µM | OVCAR-4 > 100 µM | HL-60 24.6 µM | ACHN > 100 µM | MOLT-4 43.9 µM | EKVX > 100 µM | SK-MEL-2 > 100 µM | COLO 205 > 100 µM | M14 > 100 µM | Malme-3M > 100 µM | RPMI-8226 45.7 µM | OVCAR-5 > 100 µM | UO-31 > 100 µM | U-251 > 100 µM | NCI-H226 > 100 µM

[O-][N+]1=C(c2ccccc2)/C(=C2/C(c3ccccc3)=[N+]([O-])c3ccccc32)Cc2ccccc21
inactive: NCI-H522 15.3 µM | RXF 393 33.1 µM | SF-295 15.3 µM | OVCAR-4 13.8 µM | HL-60 40.1 µM | ACHN 20.9 µM | HCC 2998 13.9 µM | MOLT-4 22.8 µM | EKVX 20.4 µM | SK-MEL-2 16.1 µM | COLO 205 17.3 µM | M14 19.6 µM | Malme-3M 21.3 µM | RPMI-8226 21.1 µM | OVCAR-5 33.6 µM | UO-31 14.5 µM | U-251 14.5 µM | NCI-H226 22.5 µM

O=C(Nc1ccccc1)c1cc2ccccc2c(/N=N/c2ccc([N+](=O)[O-])cc2)c1O
inactive: NCI-H522 > 100 µM | RXF 393 82.4 µM | SF-295 38.7 µM | OVCAR-4 > 100 µM | HL-60 1.14 µM | ACHN > 100 µM | MOLT-4 17 µM | EKVX > 100 µM | SK-MEL-2 32.8 µM | COLO 205 > 100 µM | M14 > 100 µM | Malme-3M > 100 µM | RPMI-8226 25.5 µM | OVCAR-5 > 100 µM | UO-31 > 100 µM | U-251 31.4 µM | NCI-H226 > 100 µM

COC(=O)[C@H]1NC(=O)CCSSC1(C)C
inactive: NCI-H522 > 100 µM | RXF 393 > 100 µM | SF-295 > 100 µM | OVCAR-4 > 100 µM | HL-60 > 100 µM | ACHN > 100 µM | MOLT-4 > 100 µM | EKVX > 100 µM | SK-MEL-2 > 100 µM | COLO 205 > 100 µM | M14 > 100 µM | Malme-3M > 100 µM | RPMI-8226 > 100 µM | OVCAR-5 > 100 µM | UO-31 > 100 µM | U-251 > 100 µM | NCI-H226 > 100 µM

COc1ccccc1N1C(=O)CSC1c1c[nH]c2ccccc12 (stereo unspecified)
inactive: RXF 393 > 100 µM | SF-295 > 100 µM | OVCAR-4 > 100 µM | HL-60 > 100 µM | ACHN > 100 µM | HCC 2998 > 100 µM | MOLT-4 > 100 µM | EKVX > 100 µM | SK-MEL-2 > 100 µM | COLO 205 > 100 µM | M14 > 100 µM | RPMI-8226 > 100 µM | OVCAR-5 > 100 µM | UO-31 58.1 µM | U-251 > 100 µM | NCI-H226 > 100 µM
